Patent US20240239801A1, “PYRIMIDO[5,4,D]PYRIMIDINE COMPOUNDS, COMPOSITIONS COMPRISING THEM AND USES THEREOF” (Université de Montréal, priority 2021, published 2024)
Read-outs that look alike come from different tables or passages of the source.

What was measured:
[1] = test system: HCT116 pERK; assay: Phospho-ERK inhibition, AlphaLISA SureFire Ultra p-ERK 1/2; format: cell-based, human; conditions: for IC50: 1 h treatment; for HCT116 (Ymin %): lowest value of the pERK IC50 curve
Experimental: (§1) All cancer cell lines (A375, A101D, A2058, RKO, HT29 SK-MEL 30, IPC298, HepG2, HCT-116, Lovo, SW620, SW480, NCI-H358, NCI-H2122, Calu-6, NCIH2087, NCIH1755, NCIH1666 and Mewo) were obtained from ATCC and cultured in RPMI-1640 medium (Gibco) supplemented with 5% heat inactivated fetal bovine serum (FBS, Wisent) at 37° C. under 5% CO2. Cells were maintained in T175 flasks (Greiner). They were passaged by removing the culture medium, washing once in 10 mL of room temperature Phosphate Buffered Saline (PBS; Wisent) and incubating at 37° C. with 2 mL of 0.05% Trypsin (Thermo-Fisher). Trypsin was then inactivated by adding complete growth medium and the cells were then replated in a T175 culture dish at the appropriate dilution. All cell lines were routinely tested for mycoplasma contamination. Tissue type and mutational status of each cell line can be found in Table B.
(§2) AlphaLISA® SureFire® Ultra™ p-ERK ½ (Thr202/Tyr204) analysis was conducted on cells plated in 100 μL of complete RPMI-1640 growth medium in 96-well flat-bottomed transparent dishes (Costar) at a density indicated in Table C. Cells were maintained overnight at 37° C. under 5% CO2 before treatment with compounds' dilution series for one hour. The cell density in cells/cm^2 corresponds to cell number divided by the area of one well of a 96-well plate ([…]).
(§3) In a dilution series 100 μL/well of test substance dilution prepared in complete RPMI-1640 growth media was added to the cells. The dilution series is selected so that ten concentrations cover a range from 30 μM or 10 μM to 0.33 nM. If necessary, the initial concentration of 10 μM is increased to 100 μM or lowered to 1 μM (as in the case of A375 and NCIH1666 cells, which are generally more sensitive to the compounds) and further dilution is carried out accordingly. The final concentration of DMSO in the assay is set at 0.5%.
(§4) After treatment, media was removed, and cells were lysed in 50 μL of 1× AlphaScreen Ultra Lysis Buffer (Perkin Elmer). The AlphaLISA® SureFire® Ultra™ p-ERK ½ (Thr202/Tyr2O4) (PerkinElmer) reactions were performed with 5 μL of cell lysate according to the manufacturer's specifications in 384-well proxyplates (Perkin Elmer) followed by overnight incubation of the reactions at room temperature in a humidified chamber. After completion of the reactions, the signals were recorded on an EnVision plate reader (Perkin Elmer) using built in AlphaLISA® settings.
(§5) The effect of each compound dilution on the pERK signal was expressed in % inhibition and calculated as follows. An internal 100% inhibition control (1 μM trametinib, cat. No. HY-10999; MedChem Express; CAS No. 871700-17-3) was included in each plate and used as a measure of pERK background. First, the value obtained for trametinib was subtracted from each data point. The average of DMSO (vehicle) controls (set as 0% inhibition) was established and used to calculate % inhibition:
(§6) The ability of each compound to inhibit pERK signal was expressed as an IC50 value obtained by plotting the inhibition values for each data point of a dilution series and fitting the obtained curves using a log(agonist) versus response−variable slope (four parameters) function using GraphPadPrism (V7.0).
(§7) When present, paradoxical pERK induction is inferred from the negative % inhibition values observed in the pERK IC50 curves of a compound.

[2] = test system: SW480 pERK; assay: as above; format: cell-based, human; conditions: for IC50: 1 h treatment; for SW480 (Ymin %): lowest value of the pERK IC50 curve
Experimental: as §1, §2, §3, §4, §5, §6, §7

[3] = Table 3, read-out: SW480 PERK IC50
[4] = Table 2, read-out: SW480 PERK IC50 (UM)

| SMILES | IC50 ([1]; Table 3) [µM] | IC50 [2, 3] [µM] | HCT116 (Ymin %) ([1]; Table 3) [%] | SW480 (Ymin %) ([2]; Table 3) [%] | other results |
| --- | --- | --- | --- | --- | --- |
| COc1ccc(S(=O)(=O)Nc2ccc(F)c(Nc3ncnc4cnc(-n5ccnc5C)nc34)c2F)cc1 [Example 32] | 10 to 30 | 1 to 10 | 1 | 8 | – |
| COc1ccc(S(=O)(=O)Nc2ccc(F)c(Nc3ncnc4cnc(N5CC(F)(F)C5)nc34)c2F)cc1 [Example 48] | 1 to 10 | 1 to 10 | 13 | 6 | – |
| COc1ccc(S(=O)(=O)Nc2ccc(F)c(Nc3ncnc4c(N)nc(-n5cnc(C)c5C)nc34)c2F)c(C)c1 [Example 86] | – | – | – | – | IC50 ([1]; Table 4): 1 to 10 µM; HCT116 (Ymin %) ([1]; Table 4): 8%; IC50 ([2]; Table 4, read-out: SW480 PERK IC50): 1 to 10 µM; SW480 (Ymin %) ([2]; Table 4): 3% |
| CSc1ncc2ncnc(Nc3c(F)ccc(NS(=O)(=O)N4CCCC4)c3F)c2n1 [Example 24] | – | – | – | – | IC50 ([1]; Table 2): 10 to 30 µM; HCT116 (Ymin %) ([1]; Table 2): 10%; IC50 [2, 4]: 1 to 10 µM; SW480 (Ymin %) ([2]; Table 2): 13% |
| COc1ccc(S(=O)(=O)Nc2ccc(F)c(Nc3ncnc4cnc(-n5cc(C)nc5C)nc34)c2F)cc1 [Example 37] | 1 to 10 | 1 to 10 | −5 | −6 | – |
| N#Cc1ccccc1S(=O)(=O)Nc1ccc(F)c(Nc2ncnc3cnc(N4CC[C@H](F)C4)nc23)c1F [Example 33] | 10 to 30 | 1 to 10 | −4 | 13 | – |
| COC(=O)c1sccc1S(=O)(=O)Nc1ccc(F)c(Nc2ncnc3cnc(SC)nc23)c1F [Example 3] | – | – | – | – | IC50 ([1]; Table 2): 1 to 10 µM; HCT116 (Ymin %) ([1]; Table 2): −7%; IC50 [2, 4]: 1 to 10 µM; SW480 (Ymin %) ([2]; Table 2): 9% |
| COc1ccc(S(=O)(=O)Nc2ccc(F)c(Nc3ncnc4cnc(SC)nc34)c2F)c(F)c1 [Example 8] | – | – | – | – | IC50 ([1]; Table 2): 1 to 10 µM; HCT116 (Ymin %) ([1]; Table 2): −3%; IC50 [2, 4]: 1 to 10 µM; SW480 (Ymin %) ([2]; Table 2): 15% |
| Cc1ncn(-c2ncc3ncnc(Nc4c(F)ccc(NS(=O)(=O)c5ccc6c(c5)CCO6)c4F)c3n2)c1C [Example 65] | 1 to 10 | 1 to 10 | 4 | 5 | – |
| COc1ccc(S(=O)(=O)Nc2ccc(F)c(Nc3ncnc4cnc(N5CCC(O)C5)nc34)c2F)cc1 (stereo not drawn) [Example 42] | 10 to 30 | 10 to 30 | −2 | 11 | – |
| COc1ccc(S(=O)(=O)Nc2ccc(F)c(Nc3ncnc4cnc(N5CCC5)nc34)c2F)cc1 [Example 43] | 10 to 30 | 10 to 30 | 11 | 0 | – |
| COc1ccc(S(=O)(=O)Nc2ccc(F)c(Nc3ncnc4cnc(N5CC[C@H](F)C5)nc34)c2F)cc1 [Example 31] | 1 to 10 | 1 to 10 | 13 | 11 | – |
| COc1ccc(S(=O)(=O)Nc2ccc(F)c(Nc3ncnc4cnc(SC)nc34)c2F)c(OC)c1 [Example 19] | – | – | – | – | IC50 ([1]; Table 2): 10 to 30 µM; HCT116 (Ymin %) ([1]; Table 2): −4%; IC50 [2, 4]: 1 to 10 µM; SW480 (Ymin %) ([2]; Table 2): 4% |
| CSc1ncc2ncnc(Nc3c(F)ccc(NS(=O)(=O)c4ccccc4C)c3F)c2n1 [Example 20] | – | – | – | – | IC50 ([1]; Table 2): 1 to 10 µM; HCT116 (Ymin %) ([1]; Table 2): 7%; IC50 [2, 4]: 1 to 10 µM; SW480 (Ymin %) ([2]; Table 2): 12% |
| COc1ccc(S(=O)(=O)Nc2ccc(F)c(Nc3ncnc4cnc(-n5cnc(C)c5)nc34)c2F)cc1OC [Example 30] | 1 to 10 | 10 to 30 | −6 | −5 | – |
| CSc1ncc2ncnc(Nc3c(F)ccc(NS(=O)(=O)c4ccc(Cl)cc4Cl)c3F)c2n1 [Example 15] | – | – | – | – | IC50 ([1]; Table 2): 10 to 30 µM; HCT116 (Ymin %) ([1]; Table 2): −3%; IC50 [2, 4]: 10 to 30 µM; SW480 (Ymin %) ([2]; Table 2): 0% |
| COc1ccc(S(=O)(=O)Nc2ccc(F)c(Nc3ncnc4cnc(Oc5cccc(N)c5)nc34)c2F)cc1 [Example 54] | 10 to 30 | 10 to 30 | −7 | 8 | – |
| O=S(=O)(Nc1ccc(F)c(Nc2ncnc3cnc(-n4cnc5ccccc54)nc23)c1F)c1ccc2c(c1)CCO2 [Example 64] | 1 to 10 | 1 to 10 | 2 | 19 | – |
| COc1ccc(S(=O)(=O)Nc2ccc(F)c(Nc3ncnc4cnc(-n5cnc(C)c5C)nc34)c2F)c(F)c1 [Example 53] | 1 to 10 | 1 to 10 | 15 | −4 | – |
| COc1ccc(S(=O)(=O)Nc2ccc(F)c(Nc3ncnc4cnc(-n5cnc6ccccc65)nc34)c2F)c(F)c1 [Example 45] | 1 to 10 | 1 to 10 | 11 | −8 | – |
| COc1ccc(S(=O)(=O)Nc2ccc(F)c(Nc3ncnc4cnc(Oc5cccc(C#N)c5)nc34)c2F)cc1 [Example 49] | 10 to 30 | 10 to 30 | 8 | −9 | – |
| CSc1ncc2ncnc(Nc3c(F)ccc(NS(=O)(=O)c4ccc(Cl)cc4C)c3F)c2n1 [Example 22] | – | – | – | – | IC50 ([1]; Table 2): 1 to 10 µM; HCT116 (Ymin %) ([1]; Table 2): −1%; IC50 [2, 4]: 1 to 10 µM; SW480 (Ymin %) ([2]; Table 2): −5% |
| CSc1ncc2ncnc(Nc3c(F)ccc(NS(=O)(=O)c4ccc5c(c4)OCO5)c3F)c2n1 [Example 6] | – | – | – | – | IC50 ([1]; Table 2): 10 to 30 µM; HCT116 (Ymin %) ([1]; Table 2): −10%; IC50 [2, 4]: 1 to 10 µM; SW480 (Ymin %) ([2]; Table 2): 1% |

The next lines start with results.

| IC50 ([1]; Table 3) [µM] | IC50 [2, 3] [µM] | SMILES | HCT116 (Ymin %) ([1]; Table 3) [%] | SW480 (Ymin %) ([2]; Table 3) [%] | other results |
| --- | --- | --- | --- | --- | --- |
| 10 to 30 | 1 to 10 | O=S(=O)(Nc1ccc(F)c(Nc2ncnc3cnc(N4CC[C@H](F)C4)nc23)c1F)c1ccc2c(c1)CCO2 [Example 66] | 10 | 0 | – |
| 1 to 10 | 1 to 10 | O=S(=O)(Nc1ccc(F)c(Nc2ncnc3cnc(-n4cnc5ccccc54)nc23)c1F)N1CCCC1 [Example 77] | −4 | −4 | – |
| 1 to 10 | 1 to 10 | CO[C@@H]1CCN(S(=O)(=O)Nc2ccc(F)c(Nc3ncnc4cnc(N5Cc6ccccc6C5)nc34)c2F)C1 [Example 67] | 6 | 18 | – |
| 1 to 10 | 1 to 10 | CO[C@@H]1CCN(S(=O)(=O)Nc2ccc(F)c(Nc3ncnc4cnc(-n5ccc6ccccc65)nc34)c2F)C1 [Example 68] | 17 | 0 | – |
| 1 to 10 | 1 to 10 | O=S(=O)(Nc1ccc(F)c(Nc2ncnc3cnc(-n4cnc5ccccc54)nc23)c1F)N1CC2CC2C1 (stereo not drawn) [Example 74] | −3 | −7 | – |
| 1 to 10 | 1 to 10 | CC1CCN(S(=O)(=O)Nc2ccc(F)c(Nc3ncnc4cnc(-n5cnc6ccccc65)nc34)c2F)C1 (stereo not drawn) [Example 73] | −2 | 7 | – |
| 1 to 10 | 1 to 10 | CO[C@@H]1CCN(S(=O)(=O)Nc2ccc(F)c(Nc3ncnc4cnc(-n5nnc6ccccc65)nc34)c2F)C1 [Example 72] | 20 | 1 | – |
| 1 to 10 | 1 to 10 | O=S(=O)(Nc1ccc(F)c(Nc2ncnc3cnc(-n4cnc5ccccc54)nc23)c1F)N1CCC(CCl)C1 (stereo not drawn) [Example 75] | −10 | −6 | – |
| 1 to 10 | 0.5 to 1 | O=S(=O)(Nc1ccc(F)c(Nc2ncnc3cnc(-n4cnc5ccccc54)nc23)c1F)N1CCC(OC(F)F)C1 (stereo not drawn) [Example 78] | 6 | 10 | – |
| 1 to 10 | 1 to 10 | CO[C@@H]1CCN(S(=O)(=O)Nc2ccc(F)c(Nc3ncnc4cnc(-n5ccc6cccnc65)nc34)c2F)C1 [Example 71] | 8 | −4 | – |
